These are literature values, as cited in PubChem BioAssay AID1259409 (Chemical Carcinogenesis Research Information System (CCRIS), 2018).

The data set relates to rodent chemically induced tumor inhibition, incidence and multiplicity. Kind of data set: CCRIS tumor inhibitor studies. The note with it: Species: MOUSE.

On to `COc1cc2c(c(OC)c1OC)-c1c(cc3c(c1OC)OCO3)C[C@H](C)[C@@](C)(O)C2`, for which the “tumour outcome (control, treated, inhibition, significance)” value (Carcinogen: 7,12-DIMETHYLBENZ[A]ANTHRACENE, 57-97-6, Dose [Inhibitor]: 0, 5 UMOL IN 100 µL ACETONE 30 MIN PRIOR EACH PROMOTER DOSE 2/WK FOR 18 WK BEGINNING 7 D POST CARCINOGEN DOSE (STUDY DUR, Route [Inhibitor]: DERMAL, Strain/Sex: ICR/FEMALE, Target Tissue: Type of Lesion: SKIN: PAPILLOMA, Dose [Carcinogen]: 50 UG IN 100 µL ACETONE ONCE, Promoter: 12-O-TETRADECANOYLPHORBOL-13-ACETATE, 16561-29-8) was 100%, 50%, 50%, not calculated.
For the compound `CCCCNC(=O)\C=C(C)/C=C/C=C(C)/C=C/C1=C(C)CCCC1(C)C`, the “tumour outcome (control, treated, inhibition, significance)” value (Carcinogen: N-BUTYL-N-(4-HYDROXYBUTYL)NITROSAMINE, 3817-11-6, Dose [Inhibitor]: 1.5 MMOL/KG IN DIET FOR 133 D STARTING 1 WK AFTER THE LAST CARCINOGEN DOSE ( STUDY DURATION: 190 D), Route [Inhibitor]: ORAL, Strain/Sex: BDF/MALE, Target Tissue: Type of Lesion: URINARY BLADDER: TRANSITIONAL CELL CARCINOMA, Dose [Carcinogen]: 7.5 MG 1/WK FOR 8 WK, Promoter: NONE USED) was 21/100 (21%), 19/97 (20%), 5%, not significant.
`COC(=O)c1cc(O)c(O)c(O)c1`: the “tumour outcome (control, treated, inhibition, significance)” value by setting is: (Carcinogen: 7,12-DIMETHYLBENZ[A]ANTHRACENE, 57-97-6, Dose [Inhibitor]: 0, 20 UMOL IN 0.4 ML ACETONE 20 MIN PRIOR TO EACH PROMOTER DOSE (STUDY DURATION: 47 WK), Route [Inhibitor]: DERMAL, Strain/Sex: CF-1/FEMALE, Target Tissue: Type of Lesion: SKIN: CARCINOMA, Dose [Carcinogen]: 100 NMOL IN 0.2 ML ACETONE ONCE) 67%, 24%, 64%, not calculated; (Carcinogen: 7,12-DIMETHYLBENZ[A]ANTHRACENE, 57-97-6, Dose [Inhibitor]: 0, 20 UMOL IN 0.4 ML ACETONE 20 MIN PRIOR TO EACH PROMOTER DOSE (STUDY DURATION: 47 WK), Route [Inhibitor]: DERMAL, Strain/Sex: CF-1/FEMALE, Target Tissue: Type of Lesion: SKIN: PAPILLOMA, Dose [Carcinogen]: 100 NMOL IN 0.2 ML ACETONE ONCE) 94%, 84%, 11%, p<0.025.
